Measured values reported in patent publication US20110172147A1, “NEUROPEPTIDE-2 RECEPTOR (Y-2R) AGONISTS” (priority 2009, published 2011).
Read-outs that look alike come from different tables or passages of the source.

Molecular target: T1, hNPY2R (Homo sapiens, UniProt P49146)
T1 sequence (P49146 1-381): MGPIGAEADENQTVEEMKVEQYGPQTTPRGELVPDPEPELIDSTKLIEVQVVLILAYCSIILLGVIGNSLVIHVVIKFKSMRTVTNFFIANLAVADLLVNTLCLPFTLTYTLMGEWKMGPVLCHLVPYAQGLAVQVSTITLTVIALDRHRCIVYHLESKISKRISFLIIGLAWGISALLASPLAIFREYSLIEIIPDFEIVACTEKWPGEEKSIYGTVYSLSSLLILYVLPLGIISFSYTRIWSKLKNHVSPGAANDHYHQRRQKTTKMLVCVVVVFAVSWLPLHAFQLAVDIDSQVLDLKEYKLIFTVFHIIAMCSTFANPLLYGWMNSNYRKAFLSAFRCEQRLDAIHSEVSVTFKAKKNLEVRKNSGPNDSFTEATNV
Assay: cAMP Agonist Assay, HEK293/hNPY2R
Format: cell-based
Design: expressed in transfected cells; host or cells: HEK293/hNPY2R (G418 selection)
How it was run: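 Intracellular cAMP quantified by luminescent competitive ELISA after a 30 min room-temperature treatment of overnight-plated HEK293/hNPY2R cells with compound in medium containing 5 μM forskolin, 0.5 mM IBMX and 1.1% DMSO; four replicates per concentration.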

[1] = HEK293/hNPY2R cells, Forskolin 5 μM; read-out: Y2R EC50 (nM) cAMP

| Compound | EC50 [1] | EC50 (read-out: Y2R EC50 (nM) cAMP; HEK293/hNPY2R cells, Forskolin 5 μM) |
| --- | --- | --- |
| CC[C@H](C)[C@H](NC(C)=O)C(=O)N[C@@H](CCCCNC(=O)CCOCCOCCOCCOCCOCCOCCOCCOCCOCCOCCOCCOCCOCCOCCOCCOCCOCCOCCOCCOCCOCCOCCOCCOC)C(=O)N1CCN(c2ccc3ncn(CC(=O)N[C@@H](CCCNC(=N)N)C(=O)N[C@@H](Cc4c[nH]cn4)C(=O)N[C@@H](Cc4ccc(O)cc4)C(=O)N[C@@H](CC(C)C)C(=O)N[C@@H](CC(N)=O)C(=O)N[C@@H](Cc4c[nH]c5ccccc45)C(=O)N[C@H](C(=O)N[C@H](C(=O)N[C@@H](CCCNC(=N)N)C(=O)N[C@@H](CCC(N)=O)C(=O)N(C)[C@@H](CCCNC(=N)N)C(=O)N[C@@H](Cc4ccc(O)cc4)C(N)=O)[C@@H](C)O)C(C)C)c(=O)c3c2)CC1 [Example 21] | 1.29 nM |  |
| CCCCCCCCCCCCCCCCCCCC(=O)NCCCCCC(=O)N[C@H](C(=O)N[C@@H](CCCCNC(=O)CCOCCOCCOCCOCCOCCOCCOCCOCCOCCOCCOCCOCCOCCOCCOCCOCCOCCOCCOCCOCCOCCOCCOCCOC)C(=O)N1CCN(c2ccc3ncn(CC(=O)N[C@@H](CCCNC(=N)N)C(=O)N[C@@H](Cc4c[nH]cn4)C(=O)N[C@@H](Cc4ccc(O)cc4)C(=O)N[C@@H](CC(C)C)C(=O)N[C@@H](CC(N)=O)C(=O)N[C@@H](Cc4c[nH]c5ccccc45)C(=O)N[C@H](C(=O)N[C@H](C(=O)N[C@@H](CCCNC(=N)N)C(=O)N[C@@H](CCC(N)=O)C(=O)N(C)[C@@H](CCCNC(=N)N)C(=O)N[C@@H](Cc4ccc(O)cc4)C(N)=O)[C@@H](C)O)C(C)C)c(=O)c3c2)CC1)[C@@H](C)CC [Example 35] | 0.17 nM |  |
| CC[C@H](C)[C@H](NC(=O)[C@H](CCC(=O)O)NC(=O)[C@H](CCC(=O)O)NC(=O)CCCCCCCCCCCCCCC(=O)O)C(=O)N[C@@H](CCCCNC(=O)CCOCCOCCOCCOCCOCCOCCOCCOCCOCCOCCOCCOCCOCCOCCOCCOC)C(=O)N1CCN(c2ccc3ncn(CC(=O)N[C@@H](CCCNC(=N)N)C(=O)N[C@@H](Cc4c[nH]cn4)C(=O)N[C@@H](Cc4ccc(O)cc4)C(=O)N[C@@H](CC(C)C)C(=O)N[C@@H](CC(N)=O)C(=O)N[C@@H](Cc4c[nH]c5ccccc45)C(=O)N[C@H](C(=O)N[C@H](C(=O)N[C@@H](CCCNC(=N)N)C(=O)N[C@@H](CCC(N)=O)C(=O)N(C)[C@@H](CCCNC(=N)N)C(=O)N[C@@H](Cc4ccc(O)cc4)C(N)=O)[C@@H](C)O)C(C)C)c(=O)c3c2)CC1 [Example 54] |  | 36 nM |

The next lines start with results.

| EC50 [1] | Compound | EC50 (read-out: Y2R EC50 (nM) cAMP; HEK293/hNPY2R cells, Forskolin 5 μM) |
| --- | --- | --- |
| 2.3 nM | CCCCCCCCCCCCCCCCCCCC(=O)N[C@@H](CCS(=O)(=O)O)C(=O)N[C@@H](CCS(=O)(=O)O)C(=O)NCCCC[C@H](NC(=O)[C@@H](NC(=O)CCOCCOCCOCCOCCOCCOCCOCCOCCOCCOCCOCCOCCOCCOCCOCCOCCOCCOCCOCCOCCOCCOCCOCCOC)[C@@H](C)CC)C(=O)N1CCN(c2ccc3ncn(CC(=O)N[C@@H](CCCNC(=N)N)C(=O)NC(Cc4c[nH]cn4)C(=O)N[C@@H](Cc4ccc(O)cc4)C(=O)NC(CC(C)C)C(=O)N[C@@H](CC(N)=O)C(=O)NC(Cc4c[nH]c5ccccc45)C(=O)N[C@H](C(=O)N[C@H](C(=O)N[C@@H](CCCNC(=N)N)C(=O)NC(CCC(N)=O)C(=O)N(C)[C@@H](CCCNC(=N)N)C(=O)NC(Cc4ccc(O)cc4)C(N)=O)[C@@H](C)O)C(C)C)c(=O)c3c2)CC1 (stereo partly drawn) [Example 27] |  |
| 1.8 nM | CCCCCCCCCCCCCCCCCCCC(=O)N[C@@H](CCS(=O)(=O)O)C(=O)N[C@@H](CCS(=O)(=O)O)C(=O)NCCCC[C@H](NC(=O)[C@@H](NC(=O)CCOCCOCCOCCOCCOCCOCCOCCOCCOCCOCCOCCOCCOCCOCCOCCOCCOCCOCCOCCOCCOCCOCCOCCOC)[C@@H](C)CC)C(=O)N1CCN(c2ccc3ncn(CC(=O)N[C@@H](CCCNC(N)=O)C(=O)NC(Cc4c[nH]cn4)C(=O)N[C@@H](Cc4ccc(O)cc4)C(=O)NC(CC(C)C)C(=O)N[C@@H](CC(N)=O)C(=O)NC(Cc4c[nH]c5ccccc45)C(=O)N[C@H](C(=O)N[C@H](C(=O)N[C@@H](CCCNC(=N)N)C(=O)NC(CCC(N)=O)C(=O)N(C)[C@@H](CCCNC(=N)N)C(=O)NC(Cc4ccc(O)cc4)C(N)=O)[C@@H](C)O)C(C)C)c(=O)c3c2)CC1 (stereo partly drawn) [Example 28] |  |
| 0.14 nM | CCCCCCCCCCCCCCCC(=O)N[C@@H](CCS(=O)(=O)O)C(=O)N[C@@H](CCS(=O)(=O)O)C(=O)NCCCC[C@H](NC(=O)[C@@H](NC(=O)CCOCCOCCOCCOCCOCCOCCOCCOCCOCCOCCOCCOCCOCCOCCOCCOCCOCCOCCOCCOCCOCCOCCOCCOC)[C@@H](C)CC)C(=O)N1CCN(c2ccc3ncn(CC(=O)N[C@@H](CCCNC(=N)N)C(=O)NC(Cc4c[nH]cn4)C(=O)N[C@@H](Cc4ccc(O)cc4)C(=O)NC(CC(C)C)C(=O)N[C@@H](CC(N)=O)C(=O)NC(Cc4c[nH]c5ccccc45)C(=O)N[C@H](C(=O)N[C@H](C(=O)N[C@@H](CCCNC(=N)N)C(=O)NC(CCC(N)=O)C(=O)N(C)[C@@H](CCCNC(=N)N)C(=O)NC(Cc4ccc(O)cc4)C(N)=O)[C@@H](C)O)C(C)C)c(=O)c3c2)CC1 (stereo partly drawn) [Example 29] |  |
